Here are results for two compounds from US20180244629A1, “Compounds And Compositions For The Treatment Of Cancer” (The Broad Institute, Inc., priority 2013, published 2018).

The test system of this assay is HeLa cells. Put plainly: PARP cleavage assay (immunoblot). In kind it is cell-based. On the procedure: The mechanism of cell death was determined after contacting the cells with the compound in Example 1. […] Cells were treated for 24 h with the indicated concentrations of each agent, lysed, and immunoblotted with anti-PARP or anti-actin.

In the case of `OO` [hydrogen peroxide], the “mechanism of cell death (PARP cleavage)” value (Hela cells treated for 24 h, anti-PARP immunoblot, FIG. 3) is listed as “caused necrosis but not apoptosis”.

Turning to `CN[C@@H]1C[C@H]2O[C@@](C)([C@@H]1OC)n1c3ccccc3c3c4c(c5c6ccccc6n2c5c31)C(=O)NC4` [staurosporine], the cell death entry (Hela cells, 10 μM, 24 h) is “almost complete cell death”.
